Tests used:
[1] = tested on: loss of memory induced by electric shock; test: Nootropa activity: protection from memory loss induced by electric shock, aquatic labyrinth (number of errors); type: in vivo, rat; conditions: rats
Procedure: Tests were carried out on rats using the technique estimating the loss of memory induced by electric shock, the loss of memory being determined as related to the number of errors made in seeking the outlet from an acquatic labyrinth (Giurgea C. J. Pharmacol (Paris) 3, 1, 17, *1972).

[2] = tested on: learning in the conditioning cage; test: Learning activity: conditioning cage (electric shock avoidance); type: in vivo
[3] = LD50 in the rat; conditions: in vivo
[4] = tested on: cataleptic condition in rats, induced by fluphenazine; test: Anti-cataleptic activity: Morpurgo test, antagonism of fluphenazine-induced catalepsy; type: in vivo, rat
Text: This activity was the subject of Morpurgo tests (Arch. Int. Pharmacodyn, 137, 84 (1962), based on antagonizing the cataleptic condition in rats, induced by fluphenazine.

[5] = tested on: desperation behavior in mice; test: Anti-depressant activity: desperation behavior in mice (Porsalt); type: in vivo, mouse
Procedure: This activity was evaluated by the method of examining the desperation behavior in mice (Porsalt, T. D., Arch. Int Pharmacodyn 229, 327 (1977).
A state of despair was induced by placing the animal in a cylinder containing water, and from which escape was impossible, the animal then finding itself obliged to treadmill continually. After a period of vigorous activity, the mouse assumes a characteristic immobile posture, which behavior is capable of reduction by the use of various types of pharmaceutical anti-depressants.

[6] = LD50 in the mouse; conditions: in vivo
[7] = Toxicity, Irwin or "screening" multi-dimensional test; type: in vivo
[8] = tested on: learning in the acquatic labyrinth; test: Learning activity: learning in the acquatic labyrinth; type: in vivo
[9] = statement covers acquatic labyrinth and conditioning cage tests
[10] = ip, i.p. (intraperitoneal route)

SMILES: O=C(COc1ccc(Cl)cc1)OCCNC12CC3CC(CC(C3)C1)C2 [Compound I, p-chlorophenoxyacetate of 1-aminoadamantine-2-ethanol]
- Nootropa activity, in words ([1]; loss of memory by electric shock): notably active
- Protection from memory loss due to electric shock (number of errors) ([1]; number of errors in acquatic labyrinth, p < 0.01): 46.5%
- Learning facility in the conditioning cage, in words [2, 9]: increased learning facility
- Increase with respect to the control in the conditioning cage (learning facility) ([2]; vs control, p < 0.001): 14.4%
- LD50 [3, 10]: 360 mg/kg
- LD50 ([3]; p.o. (oral route)): > 4000 mg/kg
- Reduction of the cataleptic activity of fluphenazine, in words [4]: slightly reduced the cataleptic activity of the fluphenazine
- Anti-depressant effects, in words ([5]; desperation behavior): moderate anti-depressant effects
- Protection with respect to the control (anti-depressant activity) ([5]; vs control, p < 0.001): 45.9%
- LD50 [6, 10]: 415 mg/kg
- LD50 ([6]; p.o. (oral route)): > 4000 mg/kg
- Toxicity: effects of non-toxic doses ([7]; non-toxic doses): no evidence as to effects of non-toxic doses
- Toxicity: effects of toxic doses ([7]; toxic doses): death accompanied by trembling and clonic convulsions
- Decrease with respect to the control in the errors made in the acquatic labrinth (5th day) ([8]; 5th day, vs control, p < 0.01): 51.6%
- Learning facility in the acquatic labyrinth, in words [8, 9]: increased learning facility
